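All cell lines were grown in 96-well plates and treated with compound for 48 hours. GI50 is the concentration that inhibits growth by half.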 The source made the active and inactive calls. Rule as the data show it: active = GI50 up to about 1.1 µM and inactive = higher.
What was measured:
Test in all cases: growth of human tumour cells (NCI), 48 h
CCRF-CEM = test system: CCRF-CEM
RXF 393 = test system: RXF 393
TK-10 = test system: TK-10
OVCAR-8 = test system: OVCAR-8
HCC 2998 = test system: HCC 2998
Malme-3M = test system: Malme-3M
DU-145 = test system: DU-145
SW-620 = test system: SW-620
SK-MEL-2 = test system: SK-MEL-2
HCT-15 = test system: HCT-15
LOX IMVI = test system: LOX IMVI
HT-29 = test system: HT-29
RPMI-8226 = test system: RPMI-8226
MCF7 = test system: MCF7
CAKI-1 = test system: CAKI-1
MOLT-4 = test system: MOLT-4
NCI-H522 = test system: NCI-H522
NCI-H460 = test system: NCI-H460
KM12 = test system: KM12
NCI-H23 = test system: NCI-H23
SF-268 = test system: SF-268
A549 = test system: A549
ACHN = test system: ACHN
HCT-116 = test system: HCT-116
Hs-578T = test system: Hs-578T
PC-3 = test system: PC-3
K562 = test system: K562
UACC-257 = test system: UACC-257
IGROV-1 = test system: IGROV-1
M14 = test system: M14
T47D = test system: T47D
HOP-92 = test system: HOP-92
U-251 = test system: U-251
BT-549 = test system: BT-549
NCI/ADR-RES = test system: NCI/ADR-RES
SK-MEL-28 = test system: SK-MEL-28
HL-60 = test system: HL-60
EKVX = test system: EKVX
SF-295 = test system: SF-295
SK-MEL-5 = test system: SK-MEL-5
MDA-MB-435 = test system: MDA-MB-435
MDA-MB-231 = test system: MDA-MB-231
UACC-62 = test system: UACC-62
UO-31 = test system: UO-31
SF-539 = test system: SF-539
SNB-19 = test system: SNB-19
OVCAR-3 = test system: OVCAR-3
OVCAR-5 = test system: OVCAR-5
A498 = test system: A498
OVCAR-4 = test system: OVCAR-4
COLO 205 = test system: COLO 205
SNB-75 = test system: SNB-75
786-0 = test system: 786-0
SN12C = test system: SN12C
HOP-62 = test system: HOP-62
NCI-H226 = test system: NCI-H226
SK-OV-3 = test system: SK-OV-3

## Cc1ccc(S(=O)(=O)OCCN(CCOS(=O)(=O)c2ccc(C)cc2)c2ccc(C=O)cc2)cc1
CCRF-CEM
  GI50: 34.8 µM (inactive)
RXF 393
  GI50: 15.7 µM (inactive)
TK-10
  GI50: 36.3 µM (inactive)
OVCAR-8
  GI50: 41.8 µM (inactive)
HCC 2998
  GI50: 28.7 µM (inactive)
Malme-3M
  GI50: 25.4 µM (inactive)
DU-145
  GI50: 27.1 µM (inactive)
SW-620
  GI50: 29.6 µM (inactive)
SK-MEL-2
  GI50: 16.5 µM (inactive)
HCT-15
  GI50: 30.1 µM
LOX IMVI
  GI50: 38.7 µM (inactive)
HT-29
  GI50: 32.1 µM (inactive)
RPMI-8226
  GI50: 38.4 µM (inactive)
MCF7
  GI50: 30.7 µM (inactive)
CAKI-1
  GI50: 21.1 µM (inactive)
MOLT-4
  GI50: 32.4 µM (inactive)
NCI-H522
  GI50: 10.8 µM (inactive)
NCI-H460
  GI50: 21.9 µM (inactive)
KM12
  GI50: 22.8 µM (inactive)
NCI-H23
  GI50: 36.2 µM (inactive)
SF-268
  GI50: 46.6 µM (inactive)
A549
  GI50: 32.5 µM (inactive)
ACHN
  GI50: 33.6 µM (inactive)
HCT-116
  GI50: 30.1 µM (inactive)
Hs-578T
  GI50: 36.2 µM (inactive)
PC-3
  GI50: 32.7 µM (inactive)
K562
  GI50: 38.4 µM (inactive)
UACC-257
  GI50: 24.8 µM (inactive)
IGROV-1
  GI50: 36.1 µM (inactive)
M14
  GI50: 32.4 µM (inactive)
T47D
  GI50: 40.7 µM (inactive)
HOP-92
  GI50: 26.1 µM (inactive)
U-251
  GI50: 24.3 µM (inactive)
BT-549
  GI50: 28.8 µM (inactive)
NCI/ADR-RES
  GI50: 36.2 µM (inactive)
SK-MEL-28
  GI50: 31.4 µM (inactive)
HL-60
  GI50: 42.3 µM (inactive)
EKVX
  GI50: 30.8 µM (inactive)
SF-295
  GI50: 44.3 µM (inactive)
SK-MEL-5
  GI50: 32.9 µM (inactive)
MDA-MB-435
  GI50: 21.4 µM (inactive)
MDA-MB-231
  GI50: 23.8 µM (inactive)
UACC-62
  GI50: 20 µM (inactive)
UO-31
  GI50: 19.5 µM (inactive)
SF-539
  GI50: 24.8 µM (inactive)
SNB-19
  GI50: 60.8 µM (inactive)
OVCAR-3
  GI50: 23.7 µM (inactive)
OVCAR-5
  GI50: 25.3 µM (inactive)
A498
  GI50: 24.9 µM (inactive)
OVCAR-4
  GI50: 21.2 µM (inactive)
COLO 205
  GI50: 28.1 µM (inactive)

## CC(C)(C)OC(=O)NC(C)(C)C(=O)NCCC(=O)O
CCRF-CEM
  GI50: > 100 µM (inactive)
SNB-75
  GI50: > 100 µM (inactive)
RXF 393
  GI50: > 100 µM (inactive)
TK-10
  GI50: > 100 µM (inactive)
OVCAR-8
  GI50: > 100 µM (inactive)
786-0
  GI50: > 100 µM (inactive)
SW-620
  GI50: > 100 µM (inactive)
SK-MEL-2
  GI50: > 100 µM (inactive)
HCT-15
  GI50: > 100 µM
LOX IMVI
  GI50: > 100 µM (inactive)
SN12C
  GI50: > 100 µM (inactive)
HT-29
  GI50: > 100 µM (inactive)
RPMI-8226
  GI50: > 100 µM (inactive)
MCF7
  GI50: > 100 µM (inactive)
HOP-62
  GI50: > 100 µM (inactive)
CAKI-1
  GI50: > 100 µM (inactive)
MOLT-4
  GI50: > 100 µM (inactive)
NCI-H522
  GI50: > 100 µM (inactive)
NCI-H460
  GI50: > 100 µM (inactive)
KM12
  GI50: > 100 µM (inactive)
NCI-H23
  GI50: > 100 µM (inactive)
SF-268
  GI50: > 100 µM (inactive)
A549
  GI50: > 100 µM (inactive)
ACHN
  GI50: > 100 µM (inactive)
Hs-578T
  GI50: > 100 µM (inactive)
NCI-H226
  GI50: > 100 µM (inactive)
PC-3
  GI50: > 100 µM (inactive)
K562
  GI50: > 100 µM (inactive)
UACC-257
  GI50: > 100 µM (inactive)
IGROV-1
  GI50: > 100 µM (inactive)
M14
  GI50: > 100 µM (inactive)
T47D
  GI50: > 100 µM (inactive)
U-251
  GI50: > 100 µM (inactive)
BT-549
  GI50: > 100 µM (inactive)
NCI/ADR-RES
  GI50: > 100 µM (inactive)
SK-MEL-28
  GI50: > 100 µM (inactive)
EKVX
  GI50: > 100 µM (inactive)
SF-295
  GI50: > 100 µM (inactive)
SK-MEL-5
  GI50: > 100 µM (inactive)
MDA-MB-435
  GI50: > 100 µM (inactive)
MDA-MB-231
  GI50: > 100 µM (inactive)
UACC-62
  GI50: > 100 µM (inactive)
UO-31
  GI50: > 100 µM (inactive)
SF-539
  GI50: > 100 µM (inactive)
SNB-19
  GI50: > 100 µM (inactive)
OVCAR-3
  GI50: > 100 µM (inactive)
OVCAR-5
  GI50: > 100 µM (inactive)
A498
  GI50: > 100 µM (inactive)
OVCAR-4
  GI50: > 100 µM (inactive)
COLO 205
  GI50: > 100 µM (inactive)
SK-OV-3
  GI50: 74.6 µM (inactive)

Source: ChEMBL document CHEMBL1201862, “PubChem BioAssay data set” (2004)
